According to PMC10615259, “The Aurora kinase B relocation blocker LXY18 triggers mitotic catastrophe selectively in malignant cells” (PLOS ONE, 2023):

Legend:
Assay in all cases: radiometric kinase assay (Eurofins KinaseProfiler)
Format in all cases: biochemical
Settings in all cases: 2 µM LXY18; Mg/ATP; 120 min; room temperature; no pre-incubation
ABL [1] = biological target: T1, ABL (Homo sapiens, UniProt P00519, H396P)
T1 construct: gene ABL1; Eurofins KinaseProfiler panel kinase

ABL [2] = biological target: T2, ABL (Homo sapiens, UniProt P00519)
T2 construct: gene ABL1; Eurofins KinaseProfiler panel kinase

MKK3 = biological target: T3, MKK3 (Homo sapiens, UniProt P46734)
T3 construct: gene MAP2K3; Eurofins KinaseProfiler panel kinase
T3 sequence (P46734 1-347): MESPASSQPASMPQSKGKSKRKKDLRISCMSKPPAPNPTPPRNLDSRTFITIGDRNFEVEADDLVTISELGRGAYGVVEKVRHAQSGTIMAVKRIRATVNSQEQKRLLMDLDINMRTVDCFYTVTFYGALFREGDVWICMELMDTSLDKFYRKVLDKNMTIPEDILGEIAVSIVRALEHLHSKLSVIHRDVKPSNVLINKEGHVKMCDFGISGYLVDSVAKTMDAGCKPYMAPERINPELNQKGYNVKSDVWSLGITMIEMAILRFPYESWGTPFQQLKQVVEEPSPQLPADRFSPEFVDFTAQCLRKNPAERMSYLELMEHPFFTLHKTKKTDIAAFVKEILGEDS

Compound: COc1cc(NC(C)=O)cc(Oc2ccnc3ccc(Br)cc23)c1 [LXY18, N-(3-((6-bromoquinolin-4-yl)oxy)-5-methoxyphenyl)acetamide]
- % inhibition at 2 μM (ABL [1]): MKK3, ABL, and an activating mutant ABL (H396P)
- % inhibition at 2 μM (ABL [2]): The only positive hits in the kinome assay were MKK3, ABL, and an activating mutant
- % inhibition at 2 μM (MKK3): The only positive hits in the kinome assay were MKK3, ABL, and an activating mutant
